Laboratory results reported in patent US6288091A, “Antiherpes virus compounds and methods for their preparation and use” (Boehringer Ingelheim Ltd., priority 1999, dated 2001).

How the values were obtained:
HSV-1 strain F or KOS = assay: Inhibition of herpes simplex virus (HSV-1) replication in cell culture (BHK-21 cells, glycoprotein C ELISA); format: cell-based; settings: Human alphaherpesvirus 1, BHK-21, Group 1 Table 1 entries
Method in brief: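 Replication readout: ELISA for HSV-1 late glycoprotein C (mAb C11, peroxidase-OPD, 450 nm) on glutaraldehyde-fixed cells. Monolayers (~50,000 cells/well) were infected with strain F or KOS (MOI 0.05 PFU/cell), then incubated 24 h at 37° with compound in 2% FBS α-MEM. EC50 derived from % inhibition.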

HCMV (strain AD169) = assay: Inhibition of HCMV replication, ELISA assay (Hs-68 cells); format: cell-based, Human Cytomegalovirus (HCMV); settings: Human betaherpesvirus 5, AD169, Hs68, Group 1 Table 1 entries, read-out: ELISA CMV EC50
Method in brief: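 EC50 derived from % inhibition of viral replication, read as p28 late-protein ELISA signal (mAb UL99, peroxidase/OPD, 450 nm) on fixed cells. Read-out came 8 days post-infection at 37 °C in DMEM with 5% FBS plus compound, after 2 h adsorption of AD169 at MOI 0.01 PFU/cell onto near-confluent Hs-68 cells.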

SMILES	EC50 (HSV-1 strain F or KOS) [nM]	EC50 (HCMV (strain AD169)) [nM]
C[C@@H](c1ccccc1)N(CC(=O)Nc1ccc(-c2csc(N)n2)cc1)C(=O)c1ccncc1 [Example 58]	40	5200
Nc1nc(-c2ccc(NC(=O)CN(CC3CCCCC3)C(=O)c3ccccc3)cc2)cs1 [Example 60]	540	3000
Nc1nc(-c2ccc(NC(=O)CN(CC3CCCCC3)C(=O)C3CCNCC3)cc2)cs1 [Example 62]	5500	2200
Nc1nc(-c2ccc(NC(=O)CN(CC3CCCCC3)C(=O)C3CCCC3)cc2)cs1 [Example 63]	250	2200
Nc1nc(-c2ccc(NC(=O)CN(CCc3ccccc3)C(=O)C3CCCC3)cc2)cs1 [Example 66]	90	350
CC(C)(C)OC(=O)NCC(=O)N(CC(=O)Nc1ccc(-c2csc(N)n2)cc1)Cc1ccccc1 [Example 72]	670	7500
Nc1nc(-c2ccc(NC(=O)CN(CC3CCCCC3)C(=O)Cc3ccccc3)cc2)cs1 [Example 77]	190	6100
Nc1nc(-c2ccc(NC(=O)CN(CCc3ccccn3)C(=O)C3CCCC3)cc2)cs1 [Example 79]	160	3800
CC(C)(C)CN(CC(=O)Nc1ccc(-c2csc(N)n2)cc1)C(=O)C1CCCCC1 [Example 80]	310	9500
CCCC(CCC)N(CC(=O)Nc1ccc(-c2csc(N)n2)cc1)C(=O)C1CCCCC1 [Example 82]	60	8100
Nc1nc(-c2ccc(NC(=O)CN(Cc3ccc(F)cc3)C(=O)c3ccncc3)cc2)cs1 [Example 84]	140	5600
CC(C)(C)OC(=O)N(CC(=O)Nc1ccc(-c2csc(N)n2)cc1)Cc1ccccc1 [Example 85]	10	600
C[C@@H](c1ccccc1)N(CC(=O)Nc1ccc(-c2csc(N)n2)cc1)C(=O)OC(C)(C)C [Example 89]	36	900
CC(C)(C)OC(=O)N(CC(=O)Nc1ccc(-c2csc(N)n2)cc1)Cc1ccncc1 [Example 90]	15	3500
CC(C)(C)NC(=S)N(CC(=O)Nc1ccc(-c2csc(N)n2)cc1)Cc1ccccc1 [Example 93]	120	250
Nc1nc(-c2ccc(NC(=O)CN(Cc3ccccc3)S(=O)(=O)c3ccccc3)cc2)cs1 [Example 97]	130	> 5000
CCC(CC)C(=O)N(CC(=O)Nc1ccc(-c2csc(N)n2)cc1)Cc1ccccc1 [Example 104]	16	1900
CN(C)CCN(CC(=O)Nc1ccc(-c2csc(N)n2)cc1)C(=O)C1CCCCC1 [Example 140]	9200	1400
